Numbering of substitutions follows the chain as printed.

Results on five compounds are retold here after patent US20260297542A1, “HERBICIDE RESISTANT PLANTS” (SYNGENTA CROP PROTECTION AG, priority 2023, published 2026).

In experiment [1] the target is T1, AtPPO1 S305L V365M (SEQ ID NO.128) (Arabidopsis thaliana, UniProt P55826, S305L/V365M).
T1 construct: made in house; host or cells: E. coli BL21 (DE3) hemG, crude extract
T1 sequence (P55826 35-537 S305L/V365M): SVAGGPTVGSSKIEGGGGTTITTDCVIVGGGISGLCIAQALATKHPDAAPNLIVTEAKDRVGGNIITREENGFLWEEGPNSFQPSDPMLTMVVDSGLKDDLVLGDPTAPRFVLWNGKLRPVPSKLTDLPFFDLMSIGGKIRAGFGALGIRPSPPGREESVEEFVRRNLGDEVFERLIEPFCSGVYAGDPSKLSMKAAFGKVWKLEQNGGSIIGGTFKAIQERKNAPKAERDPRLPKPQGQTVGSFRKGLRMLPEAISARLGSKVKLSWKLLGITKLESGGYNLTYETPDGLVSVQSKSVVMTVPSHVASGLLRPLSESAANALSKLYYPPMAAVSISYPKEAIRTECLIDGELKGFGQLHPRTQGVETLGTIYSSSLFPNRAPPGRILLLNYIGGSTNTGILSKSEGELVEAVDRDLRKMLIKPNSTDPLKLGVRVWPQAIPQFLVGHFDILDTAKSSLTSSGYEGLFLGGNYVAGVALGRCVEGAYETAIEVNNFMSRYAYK
The experiment is described as follows: fluorescent Protoporphyrinogen Oxidase assay, crude extract. It counts as biochemical. Particulars: read-out: percentage inhibition. How it is done:
(§1) A pET24 plasmid containing a DNA sequence encoding each identified variant mutant of AtPPO1 derived from Arabidopsis thaliana, codon-optimised for expression in E. coli, and under control of a T7 promoter, was synthesised by Twist Bioscience. This plasmid was expressed in E. coli BL21 (DE3) hemG with 50 μg/mL kanamycin and 25 μg/mL chloramphenicol selection. Overnight cultures grown at 37° C. were used to inoculate 150 ml AIM (AIM-Terrific Broth Base including Trace elements, Formedium) in 500 ml shake flasks at a ratio of 1:100. Cultures were grown at 37° C., 200 rpm for 3 hours and then overnight at 26° C. Cells were harvested by 4° C. centrifugation for 20 minutes at 600 rpm. Cells were stored at −80° C. until extraction. 0.5-1 g of cell pellet from was thawed and resuspended in ratio of 1:1 in lysis buffer (20 mM Tris pH8, 500 mM sodium chloride, 10% glycerol, 1× complete Protease EDTA-free Inhibitor Tablet (Roche)). The resuspension was sonicated at 50% using 10-20 cycles of 10 seconds, 20 seconds off. After sonication Triton X-100 was added to the lysates at a final concentration of 0.5%. The lysates were centrifuged at 13.00 rpm for 10 min at 4° C. The crude extracts (i.e, supernatants) were stored at −80° C. Protein concentration was measured and calculated using the absorbance at 280 nm. Extracts were diluted 1 in 4 and 10 uL was analysed by SDS PAGE.
(§2) Variant crude extracts were assayed in a fluorescent Protoporphyrinogen Oxidase assay in black 384 well plates with a clear bottom. The total volume of the reaction mixture was 100 ul and contained 100 mM K2HPO4 pH7.2, 1 mM Na2EDTA, 5 mM DTT, 20% glycerol (v/v), 0.025% Tween 20 (v/v). Reactions were started with addition of 1 uM protoporphyrinogen IX final assay concentration. Fluorescence was monitored over 30 min using a Tecan plate reader with an excitation wavelength of 405 nm, emission wavelength of 635 nm, gain of 90 and 15 flashes. 10 ul of 3-fold serial dilution of crude extract in 100 mM K2HPO4 pH7.2, 1 mM Na2EDTA, 5 mM DTT, 20% glycerol (v/v), 0.05% Tween 20 (v/v) was tested in the assay against 1% DMSO and 100 ppm herbicide B to determine the correct amount of crude extract to add to the assay to observe activity. 10 ul of the appropriate crude extract dilution was then tested in the fluorescent Protoporphyrinogen Oxidase assay against DMSO and 10-fold dose response of each compound (herbicides A to E) with a top rate of 100 ppm.
(§3) The percentage inhibition was calculated as the activity in the presence of one of four concentrations of each herbicide compound A to E (note that the compounds labelled as A to E are identified hereinabove in the relevant section of the description) as a percentage of the enzyme activity in DMSO (Table 5).

Experiment [2] addresses T2, AtPPO1 S305L G404A Y426V T431R L479N (SEQ ID NO.127) (Arabidopsis thaliana, UniProt P55826, G404A/L479N/S305L/T431R/Y426V).
T2 construct: made in house; host or cells: E. coli BL21 (DE3) hemG, crude extract
T2 sequence (P55826 35-537 S305L/G404A/Y426V/T431R/L479N): T1 sequence (P55826 35-537 S305L/V365M) with M331V, G370A, Y392V, T397R, L445N
The experiment is described as above. Type of experiment: biochemical. Particulars: read-out: percentage inhibition. How it is done: as §1, §2, §3

Usually inhibition stands for the change of the read-out against control, counted positive when it falls. As for `CCOC(=O)COc1ncccc1Oc1cc(-n2c(=O)cc(C(F)(F)F)n(C)c2=O)c(F)cc1Cl` [Herbicide A, epyrifenacil], in experiment [1], the inhibition at 0.1 ppm came to 41%, the inhibition at 1 ppm came out at 64%, the inhibition at 10 ppm came out at 92% and the inhibition at 100 ppm was determined as 91%. In experiment [2], the inhibition at 0.1 ppm was 9%, the inhibition at 1 ppm amounted to 45%, the inhibition at 10 ppm was found to be 69% and the inhibition at 100 ppm was 88%.

As for `C#CCN1C(=O)C(F)(F)Oc2cc(F)c(-n3c(=O)n(C)c(=S)n(C)c3=O)cc21` [Herbicide B, trifludimoxazin], in experiment [1], the inhibition at 0.1 ppm is 100%, the inhibition at 1 ppm was 97%, the inhibition at 10 ppm was determined as 95% and the inhibition at 100 ppm was found to be 100%. Besides, in experiment [2], the inhibition at 0.1 ppm was determined as 91%, the inhibition at 1 ppm was found to be 100%, the inhibition at 10 ppm came to 100% and the inhibition at 100 ppm stood at 100%.

For `CCOC(=O)C1(C)CC(c2cc(-n3c(=O)cc(C(F)(F)F)n(C)c3=O)c(F)cc2Cl)=NO1` (stereo not shown) [Herbicide C, 3-(2-chloro-4-fluoro-5-(3-methyl-2,6-dioxo-4-trifluoromethyl-3,6-dihydropyrimidin-1(2H)-yl)phenyl)-5-methyl-4,5-dihydroisoxazole-5-carboxylic acid ethyl ester], in experiment [1], the inhibition at 0.1 ppm came out at 45%, the inhibition at 1 ppm was 76%, the inhibition at 10 ppm is 95% and the inhibition at 100 ppm was determined as 100%. Moreover, in experiment [2], the inhibition at 0.1 ppm is 47%, the inhibition at 1 ppm was 57%, the inhibition at 10 ppm is 83% and the inhibition at 100 ppm was 96%.

For `CCOC(=O)[C@]1(C)CC(c2cc(-n3c(=O)n(C)c(=S)n(C)c3=O)c(F)cc2Cl)=NO1` [Herbicide D, ethyl (5S)-3-[2-chloro-5-(3,5-dimethyl-2,6-dioxo-4-thioxo-1,3,5-triazinan-1-yl)-4-fluoro-phenyl]-5-methyl-4H-isoxazole-5-carboxylate], in experiment [1], the inhibition at 0.1 ppm came to 51%, the inhibition at 1 ppm is 84%, the inhibition at 10 ppm was determined as 96% and the inhibition at 100 ppm is 100%. Further, in experiment [2], the inhibition at 0.1 ppm was determined as 13%, the inhibition at 1 ppm was 40%, the inhibition at 10 ppm turned out to be 75% and the inhibition at 100 ppm is 92%.

Consider `CC(C)N(C)S(=O)(=O)NC(=O)c1cc(-n2c(=O)cc(C(F)(F)F)n(C)c2=O)c(F)cc1Cl` [Herbicide E, saflufenacil], for which, in experiment [1], the inhibition at 0.1 ppm stood at 0%, the inhibition at 1 ppm stood at 71%, the inhibition at 10 ppm is 91% and the inhibition at 100 ppm stood at 100%. In addition, in experiment [2], the inhibition at 0.1 ppm stood at 11%, the inhibition at 1 ppm was found to be 48%, the inhibition at 10 ppm worked out at 75% and the inhibition at 100 ppm was found to be 92%.
